These molecules were tested against Human VPS34 (Homo sapiens (Human), UniProt Q8NEB9) (assay: Human VPS34 enzyme assay (Adapta TR-FRET)). Details: IC50 range class.
Assay type: biochemical

Sequence of Human VPS34 (Q8NEB9 whole entry): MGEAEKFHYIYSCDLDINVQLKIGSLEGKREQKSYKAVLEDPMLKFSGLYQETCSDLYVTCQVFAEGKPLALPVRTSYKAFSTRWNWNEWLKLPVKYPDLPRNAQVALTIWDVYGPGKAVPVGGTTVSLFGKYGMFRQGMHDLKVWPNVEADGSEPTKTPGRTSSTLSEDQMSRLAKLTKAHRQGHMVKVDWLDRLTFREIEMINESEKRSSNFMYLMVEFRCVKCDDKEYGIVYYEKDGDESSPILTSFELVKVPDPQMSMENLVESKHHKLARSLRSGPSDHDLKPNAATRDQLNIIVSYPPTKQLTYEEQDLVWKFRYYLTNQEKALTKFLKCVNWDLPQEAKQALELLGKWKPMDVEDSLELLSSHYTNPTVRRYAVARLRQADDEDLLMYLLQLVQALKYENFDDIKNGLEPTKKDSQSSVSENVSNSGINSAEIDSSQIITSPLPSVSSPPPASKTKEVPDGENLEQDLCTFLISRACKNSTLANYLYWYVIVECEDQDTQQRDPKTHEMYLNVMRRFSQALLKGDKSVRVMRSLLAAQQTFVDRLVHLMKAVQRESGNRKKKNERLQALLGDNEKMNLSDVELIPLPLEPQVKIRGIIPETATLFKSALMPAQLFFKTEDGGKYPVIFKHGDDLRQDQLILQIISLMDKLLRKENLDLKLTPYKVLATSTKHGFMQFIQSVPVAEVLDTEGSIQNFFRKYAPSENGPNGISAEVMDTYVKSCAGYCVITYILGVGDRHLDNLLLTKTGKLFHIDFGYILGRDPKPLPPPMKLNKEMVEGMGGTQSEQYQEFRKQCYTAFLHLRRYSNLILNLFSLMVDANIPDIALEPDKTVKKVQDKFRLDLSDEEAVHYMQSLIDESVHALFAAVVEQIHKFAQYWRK

IC50 [nM]	Compound
< 10	Cc1nccc(Nc2cc(-c3cnc(C)c(NS(=O)(=O)c4ccc(F)cc4F)c3)ccn2)n1 [Compound I-291, 2,4-difluoro-N-{6-methyl-2′-[(2-methylpyrimidin-4-yl)amino]-3,4′-bipyridin-5-yl}benzenesulfonamide]

Same assay, conditions: compound concentration 1.11 μM

Percent Inhibition [%]	Compound
91	Cc1c(-c2ccnc(N)c2)cnc(Cl)c1NS(=O)(=O)c1ccc(F)cc1F [Compound I-287, N-(2′-amino-6-chloro-4-methyl-3,4′-bipyridin-5-yl)-2,4-difluorobenzenesulfonamide]

Same assay, conditions: compound concentration 1.11 μM; read-out: Percent Inhibition

inhibition at 1.11 µM [%]	Compound
80	Cc1nccc(Nc2cc(-c3cnc(Cl)c(NC(=O)c4ccc(F)cc4F)c3C)ccn2)n1 [Compound I-295, N-{6-chloro-4-methyl-2′-[(2-methylpyrimidin-4-yl)amino]-3,4′-bipyridin-5-yl}-2,4-difluorobenzamide]
90	Cc1c(-c2ccnc(Nc3ccnc(C4CC4)n3)c2)cnc(Cl)c1NS(=O)(=O)c1ccc(F)cc1F [Compound I-296, N-{6-chloro-2′-[(2-cyclopropylpyrimidin-4-yl)amino]-4-methyl-3,4′-bipyridin-5-yl}-2,4-difluorobenzene sulfonamide]
> 99	Cc1ncc(-c2ccnc(Nc3ccccn3)c2)cc1NS(=O)(=O)c1ccc(F)cc1F [Compound I-297, 2,4-difluoro-N-[6-methyl-2′-(pyridin-2-ylamino)-3,4′-bipyridin-5-yl]benzenesulfonamide]
99	Nc1ncc(-c2ccnc(Nc3ccncn3)c2)cc1C(=O)NC12CC(C1)C2 [Compound I-298, 6-amino-N-(bicyclo[1.1.1]pent-1-yl)-2′-(pyrimidin-4-ylamino)-3,4′-bipyridine-5-carboxamide]
98	Cc1nccc(Nc2cc(-c3cnc(Cl)c(NS(=O)(=O)c4ccc(F)cc4F)c3C)ccn2)n1 [Compound I-299, N-{6-chloro-4-methyl-2′-[(2-methylpyrimidin-4-yl)amino]-3,4′-bipyridin-5-yl}-2,4-difluorobenzenesulfonamide]
96	Cc1c(-c2ccnc(Nc3ncc(C#N)cn3)c2)cnc(Cl)c1NS(=O)(=O)c1ccc(F)cc1F [Compound I-300, N-{6-chloro-2′-[(5-cyanopyrimidin-2-yl)amino]-4-methyl-3,4′-bipyridin-5-yl}-2,4-difluorobenzene sulfonamide]
96	Cc1ncc(-c2ccnc(Nc3ccn(C)n3)c2)cc1NS(=O)(=O)c1ccc(F)cc1F [Compound I-301, 2,4-difluoro-N-{6-methyl-2′-[(1-methyl-1H-pyrazol-3-yl)amino]-3,4′-bipyridin-5-yl}benzenesulfonamide]
83	CCN(CC)C(=O)c1cc(-c2ccnc(Nc3ccnc(C)n3)c2)cnc1C [Compound I-302, N,N-diethyl-6-methyl-2′-[(2-methylpyrimidin-4-yl)amino]-3,4′-bipyridine-5-carboxamide]
95	CN(C(=O)c1cc(-c2ccnc(Nc3ccncn3)c2)cnc1N)C12CC(C1)C2 [Compound I-303, 6-amino-N-(bicyclo[1.1.1]pent-1-yl)-N-methyl-2′-(pyrimidin-4-ylamino)-3,4′-bipyridine-5-carboxamide]
96	Cc1nccc(Nc2cc(-c3cnc(C)c(C(=O)N4CCC4)c3)ccn2)n1 [Compound I-304, Azetidin-1-yl(6-methyl-2′-((2-methylpyrimidin-4-yl)amino)-3,4′-bipyridin-5-yl)methanone]
94	Cc1ncc(-c2ccnc(NC(=O)C3CCC3)c2)cc1NS(=O)(=O)c1ccc(F)cc1F [Compound I-305, N-(5-{[(2,4-difluorophenyl)sulfonyl]amino}-6-methyl-3,4′-bipyridin-2′-yl)cyclobutanecarboxamide]
> 99	Cc1nccc(Nc2cc(-c3cnc(N(C)C)c(C(=O)N(C)C45CC(C4)C5)c3)ccn2)n1 [Compound I-306, N-(bicyclo[1.1.1]pent-1-yl)-6-(dimethylamino)-N-methyl-2′-((2-methylpyrimidin-4-yl)amino)-3,4′-bipyridine-5-carboxamide]
> 99	Cc1ccc(Nc2cc(-c3cnc(C)c(NS(=O)(=O)c4ccc(F)cc4F)c3)ccn2)nn1 [Compound I-307, 2,4-difluoro-N-{6-methyl-2′-[(6-methylpyridazin-3-yl)amino]-3,4′-bipyridin-5-yl}benzenesulfonamide]
99	Cc1c(-c2ccnc(Nc3ccncn3)c2)cnc(Cl)c1NS(=O)(=O)c1ccccc1 [Compound I-309, N-[6-chloro-4-methyl-2′-(pyrimidin-4-ylamino)-3,4′-bipyridin-5-yl]benzenesulfonamide]
> 99	Cc1ncc(-c2ccnc(Nc3cnccn3)c2)cc1NS(=O)(=O)c1ccc(F)cc1F [Compound I-310, 2,4-difluoro-N-[6-methyl-2′-(pyrazin-2-ylamino)-3,4′-bipyridin-5-yl]benzenesulfonamide]
> 99	Cc1ncc(-c2ccnc(NC(=O)C3CC3)c2)cc1NS(=O)(=O)N(C)C [Compound I-311, N-{5-[(dimethylsulfamoyl)amino]-6-methyl-3,4′-bipyridin-2′-yl}cyclopropanecarboxamide]
> 99	CC(=O)Nc1cc(-c2cnc(Cl)c(NS(=O)(=O)c3ccccc3)c2C)ccn1 [Compound I-312, N-{6-chloro-4-methyl-5-[(phenylsulfonyl)amino]-3,4′-bipyridin-2′-yl}acetamide]
88	Cc1ncc(-c2ccnc(NC(=O)N3CCCC3)c2)cc1NS(=O)(=O)c1ccc(F)cc1F [Compound I-313, N-(5-{[(2,4-difluorophenyl)sulfonyl]amino}-6-methyl-3,4′-bipyridin-2′-yl)pyrrolidine-1-carboxamide]
91	Cc1nccc(Nc2cc(-c3cnc(Cl)c(N(C)C)c3C)ccn2)n1 [Compound I-314, 6-chloro-N5,N5,4-trimethyl-N2′-(2-methylpyrimidin-4-yl)-3,4′-bipyridine-2′,5-diamine]
92	Cc1nccc(Nc2cc(-c3cnc(C)c(C(=O)N4CCCC4)c3)ccn2)n1 [Compound I-315, {6-methyl-2′-[(2-methylpyrimidin-4-yl)amino]-3,4′-bipyridin-5-yl}(pyrrolidin-1-yl)methanone]

The remaining lines, values behind:

Compound	inhibition at 1.11 µM [%]
Cc1nccc(Nc2cc(-c3cnc(O)c(S(=O)(=O)NC4CCC4)c3)ccn2)n1 [Compound I-279, N-cyclobutyl-6-hydroxy-2′-[(2-methylpyrimidin-4-yl)amino]-3,4′-bipyridine-5-sulfonamide]	93
Cc1nccc(Nc2cc(-c3cnc(C)c(C(N)=O)c3)ccn2)n1 [Compound I-280, 6-methyl-2′-[(2-methylpyrimidin-4-yl)amino]-3,4′-bipyridine-5-carboxamide]	83
Cc1ncc(-c2ccnc(N)c2)cc1NS(=O)(=O)N(C)C [Compound I-281, N′-(2′-amino-6-methyl-3,4′-bipyridin-5-yl)-N,N-dimethylsulfuric diamide]	40
Cc1c(-c2ccnc(Nc3ccncn3)c2)cnc(Cl)c1NS(=O)(=O)c1ccc(F)cc1F [Compound I-282, N-[6-chloro-4-methyl-2′-(pyrimidin-4-ylamino)-3,4′-bipyridin-5-yl]-2,4-difluorobenzenesulfonamide]	94
CC(=O)Nc1cc(-c2cnc(N(C)C)c(C(=O)NC34CC(C3)C4)c2)ccn1 [Compound I-283, 2′-Acetamido-N-(bicyclo[1.1.1]pent-1-yl)-6-(dimethylamino)-3,4′-bipyridine-5-carboxamide]	> 99
CN(C)c1ncc(-c2ccnc(Nc3ccncn3)c2)cc1C(=O)N(C)C12CC(C1)C2 [Compound I-284, N-(bicyclo[1.1.1]pent-1-yl)-6-(dimethylamino)-N-methyl-2′-(pyrimidin-4-ylamino)-3,4′-bipyridine-5-carboxamide]	> 99
Cc1nccc(Nc2cc(-c3cnc(C)c(C(=O)NCC4CC4)c3)ccn2)n1 [Compound I-285, N-(cyclopropylmethyl)-6-methyl-2′-((2-methylpyrimidin-4-yl)amino)-[3,4′-bipyridine]-5-carboxamide]	85
Cc1nccc(Nc2cc(-c3cnc(C)c(NS(=O)(=O)N(C)C)c3)ccn2)n1 [Compound I-286, N,N-dimethyl-N-{6-methyl-2′-[(2-methylpyrimidin-4-yl)amino]-3,4′-bipyridin-5-yl}sulfuric diamide]	> 99
Cc1nccc(Nc2cc(-c3cnc(C)c(N4CCCN(C)S4(=O)=O)c3)ccn2)n1 [Compound I-288, 6-methyl-5-(6-methyl-1,1-dioxido-1,2,6-thiadiazinan-2-yl)-N-(2-methylpyrimidin-4-yl)-3,4′-bipyridin-2′-amine]	91
Cc1nc(Nc2cc(-c3cnc(C)c(NS(=O)(=O)c4ccc(F)cc4F)c3)ccn2)ccc1C#N [Compound I-289, N-{2′-[(5-cyano-6-methylpyridin-2-yl)amino]-6-methyl-3,4′-bipyridin-5-yl}-2,4-difluorobenzene sulfonamide]	> 99
CC(=O)Nc1cc(-c2cnc(Cl)c(NS(=O)(=O)c3ccc(F)cc3Cl)c2C)ccn1 [Compound I-290, N-(6-chloro-5-{[(2-chloro-4-fluorophenyl)sulfonyl]amino}-4-methyl-3,4′-bipyridin-2′-yl)acetamide]	> 99
Cc1nccc(Nc2cc(-c3cnc(C)c(NS(=O)(=O)c4ccc(F)cc4F)c3)ccn2)n1 [Compound I-291, 2,4-difluoro-N-{6-methyl-2′-[(2-methylpyrimidin-4-yl)amino]-3,4′-bipyridin-5-yl}benzenesulfonamide]	95
Cc1ncc(-c2ccnc(Nc3ccnc(C(F)(F)F)n3)c2)cc1C(=O)N1CCC1 [Compound I-292, azetidin-1-yl(6-methyl-2′-{[2-(trifluoromethyl)pyrimidin-4-yl]amino}-3,4′-bipyridin-5-yl)methanone]	99
Cc1ccnc(Nc2cc(-c3cnc(Cl)c(NS(=O)(=O)c4ccc(F)cc4F)c3C)ccn2)n1 [Compound I-293, N-{6-chloro-4-methyl-2′-[(4-methylpyrimidin-2-yl)amino]-3,4′-bipyridin-5-yl}-2,4-difluorobenzene sulfonamide]	> 99
Cc1nccc(Nc2cc(-c3cnc(Cl)c(NS(=O)(=O)c4ccc(F)cc4F)c3C)c(F)cn2)n1 [Compound I-294, N-{6-chloro-5′-fluoro-4-methyl-2′-[(2-methylpyrimidin-4-yl)amino]-3,4′-bipyridin-5-yl}-2,4-difluorobenzenesulfonamide]	94

— patent US9802960B2 (MILLENNIUM PHARMACEUTICALS, INC., priority 2014, dated 2017)
